According to the supplement of paper PMC10307832:

Legend:
Assay in all cases: relative viability (nuclei count vs DMSO), 5 days (fraction); higher = more cells survive
Veliparib = compound: C[C@]1(c2nc3c(C(N)=O)cccc3[nH]2)CCCN1 [Veliparib]
Method in brief: (§1)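 On vehicle-anchored 1536-well plates, lung cancer cell lines held overnight at 37 °C were pinned with five library-drug doses (not always all listed) spaced by √10. With no medium change over 5 days, they were then fixed, permeabilised and Hoechst-stained in one step and imaged at 4×. MetaXpress counted nuclei, and viability is the median across plates of treated-well over vehicle-well nuclei. Acceptance needed control CV below 25% and at least one doubling.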

[1] = compound: COC1=CC=C(C=C1)CN2C=CC3=C2C=C(C=C3)C(=O)NO
Method in brief: as §1

Veliparib + Pemetrexed = compound: C[C@]1(c2nc3c(C(N)=O)cccc3[nH]2)CCCN1 [Veliparib] + Nc1nc2[nH]cc(CCc3ccc(C(=O)N[C@@H](CCC(=O)O)C(=O)O)cc3)c2c(=O)[nH]1 [Pemetrexed] (partner 0.2 µM)
Method in brief: (§2)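 Nuclei were stained with Hoechst during a one-step fixation (final 0.05% Triton X-100, 1% formaldehyde, 1 ug/ml Hoechst) carried out 5 days after dosing, then counted on 4× images. The cells, lung cancer lines in 1536-well plates, had been dosed by pin tool the day after seeding with one drug alone or a fixed anchor-drug dose plus five library-drug doses (not always all listed) in √10 steps. Relative viability is the nuclei count in treated wells divided by that in vehicle wells, and each value is the median of duplicate plates.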

[2] = compound: COC1=CC=C(C=C1)CN2C=CC3=C2C=C(C=C3)C(=O)NO + COc1cccc2cc(-c3nc([C@H]4CC[C@H](C(=O)O)CC4)n4ncnc(N)c34)[nH]c12 [OSI-027] (partner 0.5 µM)
Method in brief: as §2

| Cell Line | relative viability (Veliparib; 0.02 µM) | relative viability (Veliparib; 0.06325 µM) | relative viability (Veliparib; 0.2 µM) | relative viability (Veliparib; 0.6325 µM) | relative viability (Veliparib; 2 µM) | relative viability ([1]; 0.08 µM) | relative viability ([1]; 0.253 µM) | relative viability ([1]; 0.8 µM) | relative viability ([1]; 2.53 µM) | relative viability ([1]; 8 µM) | relative viability (Veliparib + Pemetrexed; first compound 0.02 µM) | relative viability (Veliparib + Pemetrexed; first compound 0.06325 µM) | relative viability (Veliparib + Pemetrexed; first compound 0.2 µM) | relative viability (Veliparib + Pemetrexed; first compound 0.6325 µM) | relative viability (Veliparib + Pemetrexed; first compound 2 µM) | relative viability ([2]; first compound 0.08 µM) | relative viability ([2]; first compound 0.253 µM) | relative viability ([2]; first compound 0.8 µM) | relative viability ([2]; first compound 8 µM) | relative viability ([2]; first compound 2.53 µM) |
| --- | --- | --- | --- | --- | --- | --- | --- | --- | --- | --- | --- | --- | --- | --- | --- | --- | --- | --- | --- | --- |
| 201T | 0.901 | 0.926 | 0.959 | 1.11 | 1.01 | 1.02 | 0.987 | 1.05 | 0.993 | 0.942 | 0.345 | 0.334 | 0.355 | 0.352 | 0.362 | 0.869 | 0.827 | 0.644 | 0.71 | – |
| A549 | 1 | 0.957 | 0.962 | 0.9 | 0.989 | 0.905 | 1.01 | 0.953 | 0.986 | 0.895 | – | – | – | – | – | – | – | – | – | – |
| A-427 | 0.781 | 0.995 | 0.943 | 0.939 | 0.841 | – | 0.98 | 1.01 | 0.952 | 0.806 | 1 | 0.966 | 0.946 | 1.03 | 1.04 | – | 0.44 | 0.497 | 0.367 | 0.492 |
| ABC-1 | – | 0.842 | 0.925 | 0.841 | 0.958 | – | 0.941 | 0.845 | 0.94 | 0.703 | – | – | – | – | – | – | 0.57 | 0.484 | 0.393 | 0.488 |
| BEN | 0.833 | 0.873 | 0.987 | 0.86 | 0.87 | 1.03 | 0.986 | 0.936 | 0.976 | 0.856 | 0.576 | 0.771 | 0.743 | 0.795 | 0.631 | 0.27 | 0.296 | 0.288 | 0.291 | 0.318 |
| CAL-12T | 0.918 | 0.926 | 0.981 | 0.9 | 1.02 | 1.02 | 0.889 | 1.04 | 1.05 | 0.891 | 1.23 | 1.06 | 1.32 | 1.09 | 1.3 | 0.723 | 0.643 | 0.563 | 0.642 | 0.71 |
| COR-L23 | 0.998 | 0.872 | 0.924 | 0.952 | 1.03 | 0.874 | 0.992 | 1 | 1.01 | 0.933 | 0.206 | 0.202 | 0.201 | 0.181 | 0.202 | 0.647 | 0.829 | 0.795 | 0.686 | 0.772 |
| COR-L 105 | 0.843 | 0.794 | 0.895 | 0.835 | 1.08 | 0.679 | 0.928 | 0.936 | 0.799 | 0.565 | 1.27 | 1.09 | 1.27 | 1.19 | 1.01 | 0.524 | 0.738 | 0.753 | 0.445 | 0.626 |
| Calu-6 | 1 | 0.968 | 0.935 | 0.905 | 1 | 0.825 | 1.01 | 1.03 | 0.998 | 0.977 | – | – | – | – | – | – | – | – | – | – |
| ChaGo-K-1 | 0.842 | 0.978 | 0.966 | 0.965 | 0.775 | – | 1.04 | 1.01 | 1 | 0.834 | 0.227 | 0.266 | 0.245 | 0.246 | 0.257 | – | 0.623 | 0.675 | 0.378 | 0.504 |
| EBC-1 | 1.05 | 0.93 | 0.983 | 0.915 | 1 | 0.71 | 0.931 | 1.04 | 0.987 | 0.923 | – | – | – | – | – | – | – | – | – | – |
| EKVX | 0.744 | 0.93 | 0.94 | 1 | 0.972 | 0.782 | 1.02 | 0.991 | 1.05 | 0.957 | – | 0.391 | 0.421 | 0.461 | 0.444 | 0.669 | 0.653 | 0.72 | 0.64 | 0.72 |
| EMC-BAC-2 | 1.01 | 0.786 | 1.09 | 1.11 | 0.965 | 0.88 | – | 1.08 | 0.979 | 0.873 | 0.492 | 0.408 | 0.438 | 0.442 | 0.502 | 0.371 | 0.371 | 0.425 | 0.33 | 0.381 |
| EPLC-272H | – | 0.855 | 1.02 | 1.01 | 0.938 | 0.753 | 0.871 | 1 | 0.974 | 0.766 | – | 0.273 | 0.359 | 0.283 | 0.418 | 0.223 | – | 0.313 | 0.267 | 0.257 |
| H3255 | 0.919 | 0.92 | 0.962 | 0.951 | 0.992 | 0.992 | 0.957 | 0.948 | 0.968 | 0.842 | 0.541 | 0.561 | 0.548 | 0.53 | 0.629 | 0.473 | 0.58 | 0.606 | 0.553 | 0.545 |
| HARA | 0.858 | 0.939 | 0.955 | 0.979 | 0.915 | – | 1.02 | 1.08 | 0.89 | 0.884 | 0.254 | – | 0.219 | 0.265 | 0.261 | – | 0.522 | 0.535 | 0.42 | 0.553 |
| HCC-15 | 0.89 | 0.952 | 1.04 | 0.985 | 1.05 | 0.883 | 0.965 | 1.11 | 1.01 | 0.935 | 0.219 | 0.214 | 0.228 | 0.2 | 0.239 | 0.625 | 0.715 | 0.672 | 0.529 | 0.742 |
| HCC-44 | 0.971 | 0.798 | 0.958 | 1.01 | 0.94 | 0.916 | 0.923 | 1.03 | 1.05 | 1 | 0.606 | 0.656 | 0.655 | 0.59 | 0.63 | 0.465 | 0.453 | 0.498 | 0.454 | 0.554 |
